Numbered stars: 1 amine (or outer) side, 2 acyl side, 3 side chain; on linkers, the order of the positions; unused ones are H or OH. Square brackets hold non-standard residues; d marks the D form. Peptide text beside a SMILES is read from it. * marks the point of attachment. ξ: configuration not given here. aIle = CC[C@@H](C)[C@H](N)C(=O)O; dCha = N[C@H](CC1CCCCC1)C(=O)O; Cbz = O=C(OCc1ccccc1)*; CO = O=C([*:1])[*:2]; ξV = CC(C)C(N)C(=O)O
What follows are molecules tested against T1, TAFIa (Homo sapiens, UniProt Q96IY4) (assay: TAFIa inhibition, Actichrome plasma TAFI activity kit (American Diagnostica)). Conditions: 15 min preincubation at room temperature, read at 420 nm, duplicate determination of serial dilutions.
T1 construct: purchased American Diagnostica 874TAFIA
T1 sequence (Q96IY4 115-423): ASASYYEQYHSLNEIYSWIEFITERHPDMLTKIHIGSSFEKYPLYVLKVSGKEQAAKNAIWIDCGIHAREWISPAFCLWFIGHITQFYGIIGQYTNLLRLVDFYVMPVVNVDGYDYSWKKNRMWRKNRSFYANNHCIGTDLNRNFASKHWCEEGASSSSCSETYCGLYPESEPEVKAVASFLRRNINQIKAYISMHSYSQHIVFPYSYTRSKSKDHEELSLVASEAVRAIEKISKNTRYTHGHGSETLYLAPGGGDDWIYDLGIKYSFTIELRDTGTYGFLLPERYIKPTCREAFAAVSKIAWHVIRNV
Format: biochemical
Protocol: The enzymic reaction was started by adding 10 μl of TAFIa developer (prediluted 1:2 with assay buffer).
The IC50 values were calculated from the averaged values (duplicate determination) of serial dilutions of the substance with the aid of the Softmax Pro software (version 4.8; Molecular Devices).

Row | IC50 [nM] | Compound
1 | 839 | CC1CCCCC1NC(=O)[C@@H](CCCCNC(=O)OCc1ccccc1)NC(=O)N[C@@H](CCCCN)C(=O)O (some centres unmarked) [Example 42]
2 | 979 | CCNC(=O)[C@@H](NC(=O)[C@@H](CC1CCCCC1)NC(=O)N[C@@H](CCCCN)C(=O)O)C(C)C [Example 10] ({Lys-CO}-[dCha]-Val-NHEt)
3 | 393 | Nc1ccc(CC(NC(=O)N[C@H](CC2CCCCC2)C(=O)NC2CC3CCC2C3)C(=O)O)cn1 (some centres unmarked) [Example 88]
4 | 305 | NCCCC[C@H](NC(=O)N[C@H](CC1CCCCC1)C(=O)NCC12CC3CC(CC(C3)C1)C2)C(=O)O [Example 78]
5 | 76 | C[C@H]1CC[C@H](NC(=O)[C@@H](CC2CCCCC2)NC(=O)N[C@@H](CCCCN)C(=O)O)CC1 [Example 31]
6 | 487 | Cc1cccc(CNC(=O)[C@@H](CC2CCCCC2)NC(=O)N[C@@H](CCCCN)C(=O)O)c1C [Example 26]
7 | 46 | NCCCC[C@H](NC(=O)N[C@H](CCCCNC(=O)OCc1ccccc1)C(=O)NC1C[C@@H]2CC[C@H]1C2)C(=O)O (some centres unmarked) [Example 43]
8 | 1300 | CC(C)[C@H](NC(=O)[C@@H](CCCCNC(=O)OCc1ccccc1)NC(=O)N[C@@H](CCCCN)C(=O)O)C(=O)N[C@@H](C)c1ccc(Cl)cc1 [Example 119]
9 | 47 | NCCCC[C@H](NC(=O)N[C@H](CC1CCCCC1)C(=O)NC1CCc2ccccc2C1)C(=O)O (some centres unmarked) [Example 73]
10 | 1500 | CC1(C)[C@@H]2CC[C@@]1(C)[C@@H](NC(=O)[C@@H](CC1CCCCC1)NC(=O)N[C@@H](Cc1ccc(N)nc1)C(=O)O)C2 [Example 93]
11 | 693 | CC(C)[C@H](NC(=O)[C@@H](CCCCNC(=O)OCc1ccccc1)NC(=O)N[C@@H](CCCCN)C(=O)O)C(=O)N[C@@H]1C[C@H]1c1ccccc1 [Example 127]
12 | 41000 | CC1(C)[C@@H]2CC[C@@]1(C)C(NC(=O)CC(CC1CCCCC1)NC(=O)N[C@@H](CCCN)C(=O)O)C2 (some centres unmarked) [Example 95]
13 | 753 | CCOC(=O)[C@H](CC(C)C)NC(=O)[C@@H](CCCCNC(=O)OCc1ccccc1)NC(=O)N[C@@H](CCCCN)C(=O)O [Example 32] ({Lys-CO}-[dK](Cbz)-Leu-OEt)
14 | 6 | CC1(C)[C@@H]2CC[C@@]1(C)[C@@H](NC(=O)[C@@H](CC1CCCCC1)NC(=O)N[C@@H](CS(=O)(=O)CCN)C(=O)O)C2 [Example 142b]
15 | 60 | CC(C)(C)C1CCC(NC(=O)[C@@H](CC2CCCCC2)NC(=O)N[C@@H](CCCCN)C(=O)O)CC1 (some centres unmarked) [Example 86]
16 | 1420 | CC(C)CCNC(=O)[C@@H](CCCCNC(=O)OCc1ccccc1)NC(=O)N[C@@H](CCCCN)C(=O)O [Example 2]
17 | 90 | CC1CCCC(NC(=O)[C@@H](CC2CCCCC2)NC(=O)N[C@@H](CCCCN)C(=O)O)C1 (some centres unmarked) [Example 41]
18 | 297 | CCOC(=O)[C@@H](NC(=O)[C@@H](CCCCNC(=O)OCc1ccccc1)NC(=O)N[C@@H](CCCCN)C(=O)O)C(C)C [Example 38] ({Lys-CO}-[dK](Cbz)-Val-OEt)
19 | 18 | CC1(C)[C@@H]2CC[C@@]1(C)[C@@H](NC(=O)[C@@H](CC1CCCCC1)NC(=O)N[C@@H](CCCN)C(=O)O)C2 [Example 124]
20 | 1040 | CC1(C)[C@@H]2CC[C@@]1(C)C(NC(=O)[C@H](NC(=O)N[C@@H](CCCCN)C(=O)O)C1CCCCC1)C2 (some centres unmarked) [Example 98]
21 | 190 | CCOC(=O)[C@@H]1CCCC[C@@H]1NC(=O)[C@@H](CCCCNC(=O)OCc1ccccc1)NC(=O)N[C@@H](CCCCN)C(=O)O [Example 33]
22 | 239 | CC(C)[C@H](NC(=O)[C@@H](CCCCNC(=O)OCc1ccccc1)NC(=O)N[C@@H](CCCCN)C(=O)O)C(=O)NC1C[C@@H]2CC[C@H]1C2 (some centres unmarked) [Example 115]
23 | 318 | CC(C)[C@H](NC(=O)[C@@H](NC(=O)[C@@H](CCCCNC(=O)OCc1ccccc1)NC(=O)N[C@@H](CCCCN)C(=O)O)C(C)C)C(N)=O [Example 140] ({Lys-CO}-[dK](Cbz)-Val-Val-NH2)
24 | 462 | CC(C)[C@@H](NC(=O)N[C@@H](CCCCN)C(=O)O)C(=O)N[C@H]1C[C@H]2CC[C@]1(C)C2(C)C [Example 97]
25 | 6 | CC1(C)[C@@H]2CC[C@@]1(C)[C@@H](NC(=O)[C@@H](CC1CCCCC1)NC(=O)NC(Cc1ccc(N)nc1)C(=O)O)C2 (some centres unmarked) [Example 110]
26 | 3 | CC1(C)C2CCC1(C)[C@@H](NC(=O)[C@@H](CC1CCCCC1)NC(=O)N[C@@H](CCCCN)C(=O)O)C2 (some centres unmarked) [Example 77]
27 | 353 | CC1CCCCC1NC(=O)[C@@H](CC1CCCCC1)NC(=O)N[C@@H](CCCCN)C(=O)O (some centres unmarked) [Example 19]

Row | IC50 [nM] | Compound
28 | 109000 | CC1(C)[C@@H]2CC[C@@]1(C)[C@@H](NC(=O)[C@@H](CC1CCCCC1)NC(=O)N[C@H](Cc1ccc(N)nc1)C(=O)O)C2 [Example 94]
29 | 845 | CC(C)CNC(=O)[C@@H](CC1CCCCC1)NC(=O)N[C@@H](CCCCN)C(=O)O [Example 76]
30 | 9760 | COC(=O)[C@@H](NC(=O)[C@@H](NC(=O)[C@H](Cc1ccccc1)NS(=O)(=O)N[C@@H](CCCCN)C(=O)O)C(C)C)C(C)C [Example 143, (S)-6-Amino-2-(3-{(S)-1-[(S)-1-((S)-1-methoxycarbonyl-2-methyl-propylcarbamoyl)-2-methyl-propylcarbamoyl]-2-phenyl-ethyl}-sulfamidyl)-hexanoic acid]
31 | 636 | COC(=O)[C@H](Cc1ccc(O)cc1)NC(=O)[C@@H](NC(=O)[C@@H](CC1CCCCC1)NC(=O)N[C@@H](CCCCN)C(=O)O)C(C)C [Example 133] ({Lys-CO}-[dCha]-Val-Tyr-OMe)
32 | 519 | CC(C)[C@H](NC(=O)[C@@H](CCCCNC(=O)OCc1ccccc1)NC(=O)N[C@@H](CCCCN)C(=O)O)C(=O)N[C@@H]1C[C@H]2CC[C@@H]1C2 [Example 114]
33 | 267 | CCOC(=O)[C@@H](NC(=O)[C@@H](NC(=O)[C@@H](CCCCNC(=O)OCc1ccccc1)NC(=O)N[C@@H](CCCCN)C(=O)O)C(C)C)C(C)C [Example 118] ({Lys-CO}-[dK](Cbz)-Val-Val-OEt)
34 | 160 | NCCCC[C@H](NC(=O)N[C@H](CC1CCCCC1)C(=O)NC1CCC2CCCCC2C1)C(=O)O (some centres unmarked) [Example 92]
35 | 391 | CC1CCCCC1NC(=O)[C@@H](NC(=O)[C@@H](CCCCNC(=O)OCc1ccccc1)NC(=O)N[C@@H](CCCCN)C(=O)O)C(C)C (some centres unmarked) [Example 128]
36 | 0.7 | CC1(C)[C@@H]2CC[C@@]1(C)[C@@H](NC(=O)[C@@H](CC1CCCCC1)NC(=O)N[C@@H](CSCCN)C(=O)O)C2 [Example 142a]
37 | 15 | CCC[C@@H](NC(=O)N[C@@H](CCCCN)C(=O)O)C(=O)N[C@H]1C[C@H]2CC[C@]1(C)C2(C)C [Example 103]
38 | 10600 | CC[C@@H](C)[C@H](NC(=O)[C@@H](CCCCNC(=O)OCc1ccccc1)NC(=O)N[C@@H](CCCCN)C(=O)O)C(N)=O [Example 142]
39 | 537 | CC[C@H](C)[C@H](NC(=O)[C@@H](CCCCNC(=O)OCc1ccccc1)NC(=O)N[C@@H](CCCCN)C(=O)O)C(=O)OC [Example 37]
40 | 370 | CC(C)[C@H](NC(=O)[C@@H](CCCCNC(=O)OCc1ccccc1)NC(=O)N[C@@H](CCCCN)C(=O)O)C(=O)NCC(C)(C)C [Example 121]
41 | 1100 | CC1(C)C2CC[C@@]1(C)[C@@H](NC(=O)[C@@H](CC1CCCCC1)NC(=O)N[C@@H](CCONC(=N)N)C(=O)O)C2 [Example 107]
42 | 615 | CC1CCCC(NC(=O)[C@@H](NC(=O)[C@@H](CCCCNC(=O)OCc2ccccc2)NC(=O)N[C@@H](CCCCN)C(=O)O)C(C)C)C1 (some centres unmarked) [Example 120]
43 | 357 | CC1(C)[C@@H]2CC[C@@]1(C)[C@@H](NC(=O)[C@H](CC1CCC1)NS(=O)(=O)N[C@@H](CCCCN)C(=O)O)C2 [Example 150]
44 | 4 | CC1(C)[C@@H]2CC[C@@]1(C)[C@@H](NC(=O)[C@@H](CC1CCCCC1)NC(=O)N[C@@H](CCCNC(=N)N)C(=O)O)C2 [Example 91]
45 | 770 | CC(C)CNC(=O)[C@@H](NC(=O)[C@H](CC1CCCCC1)NS(=O)(=O)N[C@@H](CCCCN)C(=O)O)C(C)C [Example 169]
46 | 544 | CC[C@@H](C)[C@H](NC(=O)[C@@H](CC1CCCCC1)NC(=O)N[C@@H](CCCCN)C(=O)O)C(=O)OC [Example 57] ({Lys-CO}-[dCha]-[aIle]-OMe)
47 | 904 | COc1ccc(CNC(=O)[C@@H](CC2CCCCC2)NC(=O)N[C@@H](CCCCN)C(=O)O)cc1 [Example 21]
48 | 15 | CC1(C)[C@@H]2CC[C@@]1(C)C(NC(=O)[C@@H](Cc1ccccc1)NC(=O)N[C@@H](CCCCN)C(=O)O)C2 (some centres unmarked) [Example 96]
49 | 7 | CC1(C)[C@@H]2CC[C@@]1(C)[C@@H](NC(=O)[C@@H](CC1CC1)NC(=O)N[C@@H](CCCCN)C(=O)O)C2 [Example 108]
50 | 525 | CC(C)[C@H](NC(=O)[C@@H](CCCCNC(=O)OCc1ccccc1)NC(=O)N[C@@H](CCCCN)C(=O)O)C(=O)N[C@H](C)c1ccccc1 [Example 122]
51 | 376 | CC(C)C(NC(=O)C(NC(=O)[C@@H](CCCCNC(=O)OCc1ccccc1)NC(=O)N[C@@H](CCCNC(=N)N)C(=O)O)C(C)C)C(N)=O (some centres unmarked) [Example 139] ({Arg-CO}-[dK](Cbz)-[ξV]-[ξV]-NH2)
52 | 57 | CC(C)C[C@@H](NC(=O)N[C@@H](CCCCN)C(=O)O)C(=O)NC1C[C@H]2CC[C@]1(C)C2(C)C (some centres unmarked) [Example 99]
53 | 1260 | Cc1ccccc1CCNC(=O)[C@@H](CC1CCCCC1)NC(=O)N[C@@H](CCCCN)C(=O)O [Example 13]

From patent US8389764B2, “Urea and sulfamide derivatives as inhibitors of TAFIa” (Sanofi, priority 2006, dated 2013)
